Reference: the NIST ThermoML archive (doi:10.1016/j.tca.2009.08.017)
± gives the expanded uncertainty stated by the source.

Assays:
[1] = Crystal; DTA
[2] = Molar enthalpy of transition or fusion; details: Crystal; DSC

## NC(=O)C[C@H](N)C(=O)O [L-asparagine]
[1]
  Normal melting temperature: 210.20 ± 3.2 °C
[2]
  Molar enthalpy of transition or fusion: 26.9 ± 1.53 kcal/mol

## NC(=O)CC[C@H](N)C(=O)O [L-glutamine]
[1]
  Normal melting temperature: 182.20 ± 3.4 °C
[2]
  Molar enthalpy of transition or fusion: 6.93 ± 0.884 kcal/mol
